Laboratory results: patent US11696912B2, “Charged ion channel blockers and methods for use” (Nocion Therapeutics, Inc., priority 2019, dated 2023)

Assays:
NaV1.7 [1] = target: T1, NaV1.7 (Homo sapiens, UniProt Q15858); experiment: Nav1.7 intracellular inhibition, whole cell patch clamp (internal block); type: cell-based; conditions: compound in internal solution; for inhibition at 10 µM: test concentration of 10 μM
T1 construct: expressed in transfected cells; host or cells: Tetracycline-inducible cell line kept under hygromycin and blasticidin selection
T1 sequence (Q15858 whole entry): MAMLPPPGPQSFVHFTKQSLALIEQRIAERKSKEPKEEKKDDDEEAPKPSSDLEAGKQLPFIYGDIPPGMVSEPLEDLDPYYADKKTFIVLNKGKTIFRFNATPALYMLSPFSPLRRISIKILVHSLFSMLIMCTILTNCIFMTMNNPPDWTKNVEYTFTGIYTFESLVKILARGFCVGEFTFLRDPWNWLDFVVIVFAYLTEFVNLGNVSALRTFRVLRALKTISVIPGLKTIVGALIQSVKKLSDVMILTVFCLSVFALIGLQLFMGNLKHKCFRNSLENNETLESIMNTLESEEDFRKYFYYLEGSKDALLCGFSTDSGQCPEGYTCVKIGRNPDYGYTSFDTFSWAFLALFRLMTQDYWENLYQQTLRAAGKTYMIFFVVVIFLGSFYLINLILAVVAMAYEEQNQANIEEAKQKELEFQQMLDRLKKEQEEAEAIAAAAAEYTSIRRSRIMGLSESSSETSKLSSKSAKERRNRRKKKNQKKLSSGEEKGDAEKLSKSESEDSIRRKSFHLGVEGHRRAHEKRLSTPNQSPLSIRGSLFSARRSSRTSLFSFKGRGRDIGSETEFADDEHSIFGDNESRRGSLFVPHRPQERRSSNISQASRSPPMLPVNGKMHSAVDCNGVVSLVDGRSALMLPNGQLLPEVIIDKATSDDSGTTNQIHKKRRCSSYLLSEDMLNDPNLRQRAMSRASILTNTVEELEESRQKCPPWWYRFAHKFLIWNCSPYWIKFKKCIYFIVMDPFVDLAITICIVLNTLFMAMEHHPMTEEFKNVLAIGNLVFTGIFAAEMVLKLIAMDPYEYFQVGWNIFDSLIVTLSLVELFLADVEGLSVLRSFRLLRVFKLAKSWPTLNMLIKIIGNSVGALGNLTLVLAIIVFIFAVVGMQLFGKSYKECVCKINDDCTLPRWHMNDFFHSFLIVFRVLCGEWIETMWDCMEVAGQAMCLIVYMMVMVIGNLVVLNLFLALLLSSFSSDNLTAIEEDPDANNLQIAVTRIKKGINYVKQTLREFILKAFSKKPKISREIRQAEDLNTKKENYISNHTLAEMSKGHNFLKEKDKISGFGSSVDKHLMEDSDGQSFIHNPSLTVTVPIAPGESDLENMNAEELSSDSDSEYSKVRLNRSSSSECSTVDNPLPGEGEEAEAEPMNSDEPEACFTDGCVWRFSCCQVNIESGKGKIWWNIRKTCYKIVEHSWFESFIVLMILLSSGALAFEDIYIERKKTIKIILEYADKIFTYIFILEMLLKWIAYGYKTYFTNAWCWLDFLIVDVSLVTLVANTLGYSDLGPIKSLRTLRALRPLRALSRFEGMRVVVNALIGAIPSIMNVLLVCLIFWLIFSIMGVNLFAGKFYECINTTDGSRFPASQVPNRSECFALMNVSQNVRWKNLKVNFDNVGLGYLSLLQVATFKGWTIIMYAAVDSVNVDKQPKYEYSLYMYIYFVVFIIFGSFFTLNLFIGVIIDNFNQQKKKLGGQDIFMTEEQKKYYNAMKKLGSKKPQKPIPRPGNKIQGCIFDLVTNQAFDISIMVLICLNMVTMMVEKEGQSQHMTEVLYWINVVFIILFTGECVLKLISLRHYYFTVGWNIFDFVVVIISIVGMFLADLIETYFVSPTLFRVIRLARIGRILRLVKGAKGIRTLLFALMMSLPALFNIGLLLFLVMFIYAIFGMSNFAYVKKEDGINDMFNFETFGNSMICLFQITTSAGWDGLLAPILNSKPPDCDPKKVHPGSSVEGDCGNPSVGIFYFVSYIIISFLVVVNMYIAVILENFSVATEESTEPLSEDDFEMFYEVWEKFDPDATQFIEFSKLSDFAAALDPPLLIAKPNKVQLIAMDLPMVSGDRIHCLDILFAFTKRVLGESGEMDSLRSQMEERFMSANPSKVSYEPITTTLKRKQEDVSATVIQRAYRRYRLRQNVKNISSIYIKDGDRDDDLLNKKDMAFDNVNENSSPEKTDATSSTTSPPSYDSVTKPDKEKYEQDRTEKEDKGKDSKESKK
Method: (§1) NaV1.7 was expressed upon induction with tetracycline. Cells were cultured in DMEM containing 10% dialyzed Fetal Bovine Serum (VWR, Radnor, Pa.), 1% Glutamax (VWR, Radnor, Pa.), 1% Penicillin-Streptomycin (VWR, Radnor, Pa.), 100 mg/L Hygromycin (Thermo Fisher Scientific, Waltham, Mass. and 5 mg/L Blasticidin (Alfa Aesar, Haverhill MAI Cells were grown and maintained at 37° C. in a humidified environment containing 10% CO2 in air. Cells were detached from the culture flask for passage and harvested using 0.05% Trypsin-EDTA (Thermo Fisher Scientific, Waltham, Mass.). To induce NaV1.7, cells were induced with tetracycline (0.1-1 μg/mL, IBI Scientific, Peosta, Iowa) the day before recording and plated onto 24-well plates. Cells were washed with DPBS (VWR, Radnor, Pa.), trypsinized and then triturated five times in 10 mL of growth media to break apart cell aggregates. For one 24-well plate, 2 mL of cell suspension was mixed with 23 mL of fresh growth media and 0.1-1 μg/mL tetracycline added. 1 ml of mixed media with cells was then added to each well of a 24-well plate, with a 12 mm coverslip already placed in the bottom of the well. Cells were then incubated in 37° C. and 10% CO2 overnight.
(§2) The intracellular solution contained the following (in mM) CsCl 135, NaCl 10, […], HEPES 10, MgCl2 2, adjusted to pH 7.2 with CsOH. The external solution was a normal Ringer solution containing (in mM) NaCl 155, HEPES 10, glucose 10, KCl 3.5, CaCl2 1.5, MgCl2 1 adjusted to pH 7.4 with NaOH. CsCl was from Alfa Aesar, Haverhill Mass. All other chemicals were from Sigma-Aldrich, St. Louis. Mo. In order to test the degree of internal block by test compounds the compounds were dissolved in internal solution at the indicated test concentration. […] In order to test the degree of external block by test compounds the compounds were dissolved in external solution at the indicated test concentration.
(§3) 18-24 hours after cells were induced with tetracycline, coverslips placed into a chamber filled with Normal Ringer solution at room temperature and the chamber placed on a microscope. Pipettes were pulled from borosilicate glass on a P97 puller (Sutter Instrument, Novato, Calif.) and polished with a MF-830 Microforge (Narishige International USA, Inc, Amityville, N.Y.) to have a resistance of 1.5-2.5 MΩ when filled with CsCl internal solution at room temperature. Healthy cells (those that are round and translucent with no visible blemishes) were chosen for seal formation. A seal was formed between the pipette and the cell, and a brief pulse of suction used to “break in” and establish the whole-cell configuration. The membrane potential was held at −100 mV before the voltage protocol began. Only cells with series resistance between 1.5-5 M were retained for analysis. The voltage protocol was as follows: Cells were held at −100 mV for 12 ms followed by a hyperpolarizing step to −105 mV for 12 ms to monitor the leak. Cells were then stepped back to −100 mV for 40 ms. Cells were then depolarized to −20 mV for 10 ms and returned to −100 mV for 26 ms.
(§4) Once the recording was started, the voltage protocol was run at 30 second intervals for 5 minutes to get a stable baseline. This was followed by four 30-second periods of 5 Hz stimulation of the same voltage protocol separated by 1 minute of rest which was then followed by 0.33 Hz stimulation after the last train. Currents were recorded using PatchMaster software with Heka EPC10 (HEKA Electronics, Lambrecht, Germany). Only cells with inward current amplitudes at −20 mV between 400 pA and 4 nA were accepted. In addition, cells having leak currents greater than 10% of their current amplitudes were discarded.
(§5) The data was plotted using the Patchmaster software (HEKA Electronics, Lambrecht, Germany) and analyzed by plotting the minimum current during the voltage step to −20 mV (peak inward current) as a function of time. […]

[2] = PAMPA artificial lipid membrane permeability; type: in vitro ADME; conditions: pH 7.4, 4 hours incubation, GIT lipid; for Papp at 4 h, 50 µM: PAMPA
Method: The PAMPA assay (pION, Inc., Woburn Mass.) was used to determine the ability of compounds of the invention to cross an artificial lipid membrane by passive diffusion. Test compounds were dissolved in DMSO (10 mM) and diluted 200-fold in buffer (pION Inc., pH 7.4) to provide 50 uM stock solutions. Buffer (150 μL) was added to a UV blank plate and stock solutions (150 μL) were transferred to a UV reference plate. The blank and reference spectrum were read using a spectrophotometer. Stock solutions (200 μL) were added to the donor plate of the PAMPA sandwich plate and an accept plate painted with GIT lipid (pION Inc, 5 μL) was placed on top. Buffer (200 μL) was added to the acceptor plate and the PAMPA sandwich plate was incubated for 4 hours. Aliquots (150 μL) from the acceptor plate were added to a UV plate and read as acceptor spectrum. Aliquots (150 μL) of the donor solutions were added to a UV analysis plate and read as donor spectrum. The permeability coefficient of test compounds was calculated using PAMPA Explorer™ software (version 3.5.0.4) based on the AUC of the reference plate, the donor plate, and the acceptor plate.

NaV1.7 [3] = target: T1, NaV1.7; experiment: Nav1.7 extracellular inhibition, whole cell patch clamp (external block); type: cell-based; conditions: compound in external solution; for inhibition at 10 µM: read-out: Nav1.7 extracellular inhibition, extracellular inhibition, read-out: Nav1.7 Intracellular Inhibition; for inhibition at 30 µM: test concentration of 30 μM
Method: as §1, §2, §3
as §4, with “by” for “by four 30-second periods of”, “run until the end” for “separated by 1 minute”, “experiment. […] The test compound” for “rest which”, “added for 5 minutes before washing out with normal Ringer's solution.” for “then followed by 0.33 Hz stimulation after the last train.”
as §5, with “time. To determine the % block produced by test compounds applied externally the following was done.” for “time.”

SMILES | inhibition at 3 µM (NaV1.7 [1]) [%] | inhibition at 10 µM (NaV1.7 [1]) [%] | Papp at 4 h, 50 µM [2] [×10⁻⁶ cm/s] | PAMPA (10^−6cm/s) [2] | inhibition at 10 µM (NaV1.7 [3]) [%] | inhibition at 30 µM (NaV1.7 [3]) [%]
COC(=O)c1scc(C)c1NC(=O)C[n+]1cccn1C1CCCCC1 [Compound 22] | 40 to 70 | > 70 | < 1 | + ((<0.1 10^−6 cm/s)) | < 40 | < 30
COC(=O)c1scc(C)c1NC(=O)C[n+]1cccc(-c2ccccc2)c1 [Compound 23] | 40 to 70 | > 70 | < 1 | + ((<0.1 10^−6 cm/s)) | < 40 | < 30
CCOC(=O)c1scc(C)c1NC(=O)C[n+]1cccn1C1CCCCC1 [C] | 70 to 90 | – | – | + ((<0.1 10^−6 cm/s)) | < 40 | –
Cc1csc(C(=O)OC(C)(C)C)c1NC(=O)C[n+]1cccc(-c2ccccc2)c1.[Br-] [A] | 70 to 90 | – | – | + ((<0.1 10^−6 cm/s)) | 40 to 70 | –
CCCOC(=O)c1scc(C)c1NC(=O)C[n+]1cccn1C1CCCCC1.[Br-] [B] | > 90 | – | – | + ((<0.1 10^−6 cm/s)) | < 40 | –
Cc1cccc(C(=O)OC(C)(C)C)c1NC(=O)C[n+]1cccn1C1CCCCC1.[Br-] [D] | 70 to 90 | – | – | + ((<0.1 10^−6 cm/s)) | < 40 | –
